Measured values reported in patent US20250368952A1, “Methods for Culturing Organoids” (Cellesce Limited, priority 2016, published 2025).
Entries after “also recorded” stand apart in the source; their conditions may differ.

Test system: ISO50 (Isolation number 50) colorectal cancer organoids
Assay: Drug titration assay on colorectal cancer organoids cultured in a fed-plate bioreactor (confocal imaging, morphometric analysis)
Assay type: cell-based
Conditions: 5 days
Procedure: ISO50 (Isolation number 50) colorectal cancer organoids were cultured in a fed-plate bioreactor for 3 days, recovered from the MATRIGEL™ and stored frozen at −80° C. They were subsequently revived and used to seed a 384-well plate at a density of 350 organoids per well in 12 μl MATRIGEL™. The organoids were fed with 25 μl growth medium containing 0-2.5 μM MK1775, a WEE1 inhibitor (8 replicates). After 5 days, the organoids were fixed and stained with Hoechst (blue fluorescent stain specific for DNA i.e. nuclei of eukaryotic cells) and phalloidin (pink stain for F-actin). […] The actin filaments are spread throughout the structures, but are more concentrated in the lumen, in the centre of the organoid. Representative organoids are pictured from selected wells at each concentration. The overall shape of organoids in an untreated culture, or at low concentrations of inhibitor, can vary from round and cyst-like to convoluted and branched. […] Morphometric analysis of over 1000 parameters of the organoids confirmed the observations of toxicity.

Question: With C=CCn1c(=O)c2cnc(Nc3ccc(N4CCN(C)CC4)cc3)nc2n1-c1cccc(C(C)(C)O)n1 [MK1775] as the compound, how does the “Organoid morphology (confocal imaging, Hoechst and phalloidin staining)” value (0-2.5 μM in growth medium, 384-well plate, 350 organoids per well, 8 replicates, FIG. 3A) read?
Answer: cells are shed from the outer layer of the organoid, leading to a loss in complexity and a decrease in the overall size; also recorded: cells are shed from the outer layer of the organoid, leading to a loss of complexity and a decrease in the overall size

Question: What about the “Apoptotic nuclei (morphometric analysis)” value (0-2.5 μM, FIG. 3B) of the same compound?
Answer: increase with drug concentration

Question: And the “Nuclei roundness (due to swelling before apoptosis; morphometric analysis)” value (0-2.5 μM, FIG. 3B)?
Answer: increase with drug concentration

Question: What about the “Organoid size (morphometric analysis)” value (0-2.5 μM, FIG. 3B) of the same compound?
Answer: decreases with increasing concentrations of inhibitor
